Source: patent US20230357179A1, “RAF KINASE INHIBITORS AND METHODS OF USE THEREOF” (Deciphera Pharmaceuticals, LLC, priority 2021, published 2023)

Legend:
[1] = molecular target: T1, B-Raf (V600E) kinase (Homo sapiens, UniProt P15056, V600E); assay: Biochemical assay for B-Raf (V600E).1 (coupled pyruvate kinase/lactate dehydrogenase); settings: read-out: BRAF V600E.1 IC50
T1 construct: B-Raf (V600E) residues 416-766 with a; GST (N); purchased SignalChem
Outline: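 0.03 nM B-Raf(V600E) phosphorylating 30.1 nM MEK at 1 mM ATP, pH 7.5, coupled to PK/LDH, with NADH oxidation followed at 340 nm for 6 h at 30 °C. Rates taken from the 3-4 h window. IC50 from a four-parameter fit of percent inhibition.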

[2] = molecular target: T2, B-Raf kinase (Homo sapiens, UniProt P15056); assay: Biochemical assay for B-Raf.1 (coupled pyruvate kinase/lactate dehydrogenase); settings: read-out: BRAF.1 IC50
T2 construct: GST (N); purchased Sigma
T2 sequence (P15056 416-766): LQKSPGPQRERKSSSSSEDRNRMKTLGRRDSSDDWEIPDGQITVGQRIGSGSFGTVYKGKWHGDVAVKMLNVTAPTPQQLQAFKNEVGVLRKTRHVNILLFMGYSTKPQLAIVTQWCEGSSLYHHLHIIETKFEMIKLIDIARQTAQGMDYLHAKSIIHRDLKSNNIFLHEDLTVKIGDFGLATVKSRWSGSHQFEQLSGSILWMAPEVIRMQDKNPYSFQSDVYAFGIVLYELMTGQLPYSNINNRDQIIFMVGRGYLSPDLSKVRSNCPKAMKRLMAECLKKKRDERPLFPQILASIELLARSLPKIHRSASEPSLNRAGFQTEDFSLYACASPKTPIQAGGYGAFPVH
Outline: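 NADH oxidation followed at 340 nm in a pyruvate kinase/lactate dehydrogenase-coupled assay with 0.13 nM B-Raf, 30.1 nM MEK substrate, 1 mM ATP, pH 7.5 Tris buffer, 1% DMSO. Monitored 6 h at 30 °C; rate taken from 4–5 h. IC50 from four-parameter sigmoidal fit.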

[3] = molecular target: T3, A-Raf kinase (Homo sapiens, UniProt P10398, Y301D/Y302D); assay: Biochemical assay for A-Raf.1 (coupled pyruvate kinase/lactate dehydrogenase); settings: read-out: ARAF.1 IC50
T3 construct: purchased Sigma
T3 sequence (P10398 with tags, fused parts or gaps Y301D/Y302D): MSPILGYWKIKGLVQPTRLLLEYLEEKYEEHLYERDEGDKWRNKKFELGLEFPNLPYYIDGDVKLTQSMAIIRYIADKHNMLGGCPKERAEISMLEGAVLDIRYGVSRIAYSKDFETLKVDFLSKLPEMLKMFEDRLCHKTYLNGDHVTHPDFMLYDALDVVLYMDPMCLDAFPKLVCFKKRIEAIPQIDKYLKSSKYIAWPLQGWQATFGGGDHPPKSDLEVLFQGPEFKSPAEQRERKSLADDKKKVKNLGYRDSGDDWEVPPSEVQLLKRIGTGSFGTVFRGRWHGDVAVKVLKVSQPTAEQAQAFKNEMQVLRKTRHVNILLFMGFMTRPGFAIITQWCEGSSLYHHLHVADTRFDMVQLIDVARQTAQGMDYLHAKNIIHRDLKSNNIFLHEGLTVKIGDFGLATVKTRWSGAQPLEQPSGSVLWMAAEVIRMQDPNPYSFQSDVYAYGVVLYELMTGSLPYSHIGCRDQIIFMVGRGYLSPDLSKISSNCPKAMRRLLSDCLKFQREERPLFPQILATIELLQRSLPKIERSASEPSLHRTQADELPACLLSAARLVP
Outline: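 A-Raf (5.55 nM) phosphorylating 30.1 nM MEK with 1 mM ATP was monitored by pyruvate kinase/lactate dehydrogenase-coupled NADH oxidation at 340 nm for 6 h at 30° C, in pH 7.5 Tris buffer with 15 mM MgCl2, 1% DMSO. Rates from 4–5 h gave percent inhibition; IC50 by four-parameter fit.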

[4] = tested on: Miapaca-2 cells; assay: MiaPaca-2 cell proliferation assay (1), resazurin, 96-well; format: cell-based; settings: Homo sapiens, MIA PaCa-2, inhibition of cell proliferation
Outline: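 Three thousand cells per well in DMEM with 10% FBS and 2.5% horse serum exposed to serially diluted compound in triplicate for 67-72 h at 37 °C, 5% CO2. Viability by resazurin (additional 5-6 h), fluorescence ex 540/em 600 nm; IC50 calculated.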

T1 sequence (P15056 416-766 V600E): as the sequence (P15056 416-766) above, with V185E counted along it

Structure (SMILES) | IC50 [1] [nM] | IC50 [2] [nM] | IC50 [3] [nM] | IC50 [4] [nM]
Cc1ccc(NC(=O)N2CCC(F)(F)C2)cc1-c1cncc(-c2cc(NC(=O)C3CC3)ncn2)c1 [Example 209] | 100 to 500 | ≤ 100 | > 1000 | 
COC(=O)Nc1cc(-c2nccc(-c3cc(NC(=O)N4CCC(C(F)(F)F)C4)ccc3C)n2)ccn1 (stereo not shown) [Example 193] | 100 to 500 | ≤ 100 | > 1000 | 
CNC(=O)c1cc(-c2cnnc(-c3cc(NC(=O)N4CC[C@H](OC)C4)ccc3C)c2)ccn1 [Example 177] | 100 to 500 | > 1000 | > 1000 | 
COC(=O)Nc1cc(-c2cncc(-c3cc(NC(=O)N4CCCCC4)ccc3C)c2)ccn1 [Example 208] | > 1000 | > 1000 | > 1000 | 
CNC(=O)c1cc(-c2cncc(-c3cc(NC(=O)N4CC[C@H](C(F)(F)F)C4)c(F)cc3C)c2)ccn1 [Example 214] | 100 to 500 | 500 to 1000 | > 1000 | 1000 to 10000
CC(=O)Nc1cc(-c2cc(-c3cc(NC(=O)NCCC4(C(F)(F)F)CC4)c(F)cc3C)cc(C3CC3)n2)ccn1 [Example 54] | ≤ 100 | ≤ 100 | > 1000 | 1000 to 10000
Cc1cc(F)c(NC(=O)NCCC2(C)CC2)cc1-c1cccc(-c2ccnc(NC(=O)C3CC3)c2)c1 [Example 64] | ≤ 100 | ≤ 100 | > 1000 | 1000 to 10000
Cc1ccc(NC(=O)NCCC(C)(C)C)cc1-c1ccnc(N2CCOCC2)c1 [Example 18] | ≤ 100 | ≤ 100 | > 1000 | 1000 to 10000
Cc1ccc(NC(=O)N2CC[C@@H](C)C2)cc1-c1cncc(-c2cc(NC(=O)C3CC3)ncn2)c1 [Example 219] | 100 to 500 | ≤ 100 | > 1000 | 
Cc1ccc(NC(=O)N2CCC(CC(F)(F)F)C2)cc1-c1cncc(-c2cc(N)ncn2)c1 (stereo not shown) [Example 207] | 500 to 1000 | 100 to 500 | > 1000 | 
COC(=O)Nc1cc(-c2cncc(-c3cc(NC(=O)N4CCCCCC4)ccc3C)c2)ccn1 [Example 202] | 100 to 500 | 500 to 1000 | > 1000 | 
COC[C@@H]1CCN(C(=O)Nc2cnc(C)c(-c3ccnc(-c4ccnc(NC(=O)OC)c4)c3)c2)C1 [Example 179] | ≤ 100 | > 1000 | > 1000 | 
COC(=O)Nc1cc(-c2cc(-c3cc(NC(=O)NCCC4(C)CC4)c(F)cc3F)cc(OCCO)n2)ccn1 [Example 188] | ≤ 100 | ≤ 100 | > 1000 | 
COC(=O)Nc1cc(-c2cc(-c3cc(NC(=O)N4CCC(C(F)(F)F)C4)ccc3C)cc(OCCO)n2)ccn1 (stereo not shown) [Example 222] | ≤ 100 | ≤ 100 | > 1000 | 
Cc1ccc(NC(=O)N2CCC(CC(F)(F)F)C2)cc1-c1cncc(-c2cc(NC(=O)C3CC3)ncn2)c1 (stereo not shown) [Example 194] | ≤ 100 | ≤ 100 | > 1000 | 
COC(=O)Nc1cc(-c2cc(-c3cc(NC(=O)NCCC4(C)CC4)ccc3F)cc(OCCO)n2)ccn1 [Example 187] | 100 to 500 | ≤ 100 | > 1000 | 
COC(=O)Nc1cc(-c2cncc(-c3cc(NC(=O)N4CC[C@H](C(F)(F)F)C4)ccc3C)c2)ccn1 [Example 211] | ≤ 100 | ≤ 100 | > 1000 | 
COC(=O)Nc1cc(-c2cnnc(-c3cc(NC(=O)N4CCC(C(C)(C)O)C4)ccc3C)c2)ccn1 (stereo not shown) [Example 206] | > 1000 | 500 to 1000 | > 1000 | 
CNC(=O)c1cc(-c2cnnc(-c3cc(NC(=O)N4CCC(C(C)(C)C)C4)cnc3C)c2)ccn1 (stereo not shown) [Example 184] | ≤ 100 | > 1000 | > 1000 | 
COC(=O)Nc1cc(-c2cnnc(-c3cc(NC(=O)N4CCC(CC(F)(F)F)C4)ccc3C)c2)ccn1 (stereo not shown) [Example 186] | ≤ 100 | ≤ 100 | > 1000 | 
CNC(=O)c1cc(-c2cnnc(-c3cc(NC(=O)N4CCC(C(C)(C)C)C4)ccc3C)c2)ccn1 (stereo not shown) [Example 180] | ≤ 100 | 500 to 1000 | > 1000 | 
COC(=O)Nc1cc(-c2cncc(-c3cc(NC(=O)N4CCCC4)ccc3C)c2)ccn1 [Example 213] | 500 to 1000 | > 1000 | > 1000 | 
Cc1ccc(NC(=O)N2CC[C@H](C(F)(F)F)C2)cc1-c1cncc(-c2ccnc(NC(=O)C3CC3)c2)c1 [Example 197] | ≤ 100 | ≤ 100 | 500 to 1000 | 
COC(=O)Nc1cc(-c2cc(-c3cc(NC(=O)N4CC[C@H](C(F)(F)F)C4)ccc3C)nc(C)n2)ccn1 [Example 223] | > 1000 | ≤ 100 | > 1000 | 
COC[C@H]1CCN(C(=O)Nc2cnc(C)c(-c3ccnc(-c4ccnc(NC(=O)OC)c4)c3)c2)C1 [Example 176] | ≤ 100 | > 1000 | > 1000 | 
CNC(=O)c1cc(-c2cnnc(-c3cc(NC(=O)N4CC[C@@H](OC)C4)ccc3C)c2)ccn1 [Example 181] | 100 to 500 | > 1000 | > 1000 | 
COC(=O)Nc1cc(-c2nc(OCCO)cc(-c3cc(NC(=O)NC4CC(C)(C)C4)cnc3C)n2)ccn1 [Example 174] | ≤ 100 | 100 to 500 | > 1000 | 
CNC(=O)c1cc(-c2cnnc(-c3cc(NC(=O)N4CC[C@@H](OC(F)(F)F)C4)ccc3C)c2)ccn1 [Example 182] | ≤ 100 | 500 to 1000 | > 1000 | 

Other lines, results leading:

IC50 [1] [nM] | IC50 [2] [nM] | IC50 [3] [nM] | IC50 [4] [nM] | Structure (SMILES)
≤ 100 | ≤ 100 | > 1000 | 1000 to 10000 | Cc1ccc(NC(=O)N[C@H]2C[C@](C)(F)C2)cc1-c1cc(OCCO)nc(-c2ccnc(NC(=O)CN(C)C)c2)c1 [Example 50]
≤ 100 | ≤ 100 | > 1000 |  | Cc1ccc(NC(=O)N2CCC3(CC3)C2)cc1-c1cncc(-c2cc(NC(=O)C3CC3)ncn2)c1 [Example 218]
≤ 100 | ≤ 100 | > 1000 | 1000 to 10000 | COC(C)(C)CCNC(=O)Nc1ccc(C)c(-c2cc(-c3cnn(C)c3)nc(N3CCOCC3)c2)c1 [Example 38]
≤ 100 | ≤ 100 | 500 to 1000 |  | Cc1ccc(NC(=O)N2CC[C@@H](C(F)(F)F)C2)cc1-c1cncc(-c2cc(NC(=O)C3CC3)ncn2)c1 [Example 210]
≤ 100 | ≤ 100 | > 1000 | 1000 to 10000 | Cc1ccc(NC(=O)Nc2ccnc(C(C)(C)C#N)c2)cc1-c1ccnc(-c2ccnc(C(=O)NC3CC3)c2)c1 [Example 68]
≤ 100 | ≤ 100 | 100 to 500 | 500 to 1000 | Cc1ccc(NC(=O)N2CC[C@H](C(C)C)C2)cc1-c1cncc(-c2cc(NC(=O)C3CC3)ncn2)c1 [Example 221]
≤ 100 | 100 to 500 | > 1000 | 1000 to 10000 | COC(C)(C)CCNC(=O)Nc1cnc(C)c(-c2nccc(-c3ccnc(NC(=O)C4CC4)c3)n2)c1 [Example 82]
≤ 100 | 100 to 500 | > 1000 | 1000 to 10000 | Cc1cc(F)c(NC(=O)NCCC(C)(C)C#N)cc1-c1cc(N2CCOCC2)nc(N2CCOCC2)c1 [Example 22]
≤ 100 | ≤ 100 | 100 to 500 | 1000 to 10000 | Cc1cc(F)c(NC(=O)N2CC[C@H](C(F)(F)F)C2)cc1-c1cncc(-c2cc(NC(=O)C3CC3)ncn2)c1 [Example 216]
≤ 100 | ≤ 100 | > 1000 |  | Cc1ccc(NC(=O)N2CC[C@@H](C(F)(F)F)C2)cc1-c1cncc(-c2ccnc(NC(=O)C3CC3)c2)c1 [Example 196]
≤ 100 | > 1000 | > 1000 |  | CNC(=O)c1cc(-c2cnnc(-c3cc(NC(=O)N4CCC5(CC5)C4)ccc3C)c2)ccn1 [Example 178]
≤ 100 | ≤ 100 | 100 to 500 | 500 to 1000 | CC(=O)Nc1cc(-c2cc(-c3cc(NC(=O)NC4CCCCC4)c(F)cc3C)cc(OCCO)n2)ccn1 [Example 53]
≤ 100 | ≤ 100 | > 1000 |  | COC(C)(C)CCNC(=O)Nc1cc(-c2cnnc(-c3ccnc(NC(=O)C4CC4)c3)c2)c(C)cc1F [Example 173]
≤ 100 | ≤ 100 | 100 to 500 |  | CC(=O)Nc1cc(-c2cc(-c3cc(NC(=O)NCCC4(C)CC4)c(F)cc3C)cc(NCCO)n2)ccn1 [Example 175]
≤ 100 | 100 to 500 | > 1000 |  | COC(=O)Nc1cc(-c2cnnc(-c3cc(NC(=O)N4CCC(C(C)(C)C)C4)ccc3C)c2)ccn1 (stereo not shown) [Example 185]
≤ 100 | ≤ 100 | > 1000 | 1000 to 10000 | CC(=O)Nc1cc(-c2cc(-c3cc(NC(=O)NCC45CC(F)(C4)C5)c(F)cc3C)cc(OCCO)n2)ccn1 [Example 52]
